From US4332805A, “Decahydroquinolinol derivatives and methods of treating cardiac arrythmias or inducing local anaesthesia with them” (priority 1979, dated 1982)
Where a name gives a salt, the structure may show the parent alone. Read-outs that look alike come from different tables or passages of the source.

How the values were obtained:
[1] = LAWSON test: protection against chloroform-induced ventricular fibrillation; assay type: in vivo, mice; conditions: Mus musculus, po
Protocol: The arrhythmia was induced, in this test, by inhalation of chloroform until breathing stopped.
For each dose of the substance to be studied, batches of 10 female mice, each of about 20 g, were used. These mice had been fasting for 18 hours before the test. A batch of 10 animals was used as control group.
A dose of the compound to be studied was first administered by intragastric route except to the controls which only received the solvent used with the compound in question. Thirty minutes later, the animals were placed under a dome-shaped receptacle containing a high concentration of chloroform obtained by means of a strongly impregnated pad.
The animals were removed when totally asphyxiated (about 2 minutes later), the thorax was rapidly opened and the ventricular rhythm observed. The dose of the compound under study which protected 50% of the animals against ventricular fibrillation was then determined.
This protective dose is expressed as AD50 in mg/kg in the following Table. […]
Another comparative test was performed under the same conditions with
several compounds included within the scope of U.S. Pat. No. 3,882,129 at
the single dose of 100 mg/kg by intragastric route.
The following results were obtained which are expressed in percentage of protection obtained against the arrhythmic effect at the studied dose: […]

acute toxicity [2] = conditions: rat, in vivo
Excerpt: Acute toxicity tests were undertaken with Compound A on mice and rats.

[3] = ventricular fibrillation provoked by chloroform or by calcium chloride; conditions: in vivo
convulsant dose = assay type: in vivo; conditions: mice per os; dog i.v.
acute toxicity [4] = conditions: mouse, in vivo, mice
[5] = local anaesthesia, CHANCE and LOBSTEIN technique (eyelid closure after touching cornea); assay type: in vivo, guinea-pig; conditions: for local anaesthesia, % of animals / local anaesthesia, % of animals protected: guinea-pig eye; for local anaesthesia, % of animals: 0.1% solution, 5 minutes after administration; for local anaesthesia, % of animals protected: 0.5% solution
Protocol: In this way, the percentage of locally anaesthetized animals were determined with respect to both the dose of compound given and the length of time elapsing after administration.

[6] = arrhythmia-inducing and lethal dose in continuous venous perfusion; assay type: in vivo; conditions: anaesthetized dog
[7] = motor activity (spontaneous motility) / sedation; assay type: in vivo, mouse
[8] = hypotensive activity / myocardial contractility; conditions: in vivo
[9] = LAWSON test: protection against chloroform-induced ventricular fibrillation; assay type: in vivo; conditions: mice, 75 mg/kg intragastric
[10] = protection against toxic effects of epinephrine (antiadrenergic properties); assay type: in vivo; conditions: mice, 50 mg/kg intragastric, 30 minutes before 3 mg/kg i.v. epinephrine
Protocol: Tests carried out with Compound A have shown that a dose of 50 mg/kg administered by intragastric route to mice 30 minutes before the intravenous injection of 3 mg/kg of epinephrine gave no protection against the toxic effects of this catecholamine.

[11] = 0.5 h, female mice, intragastric, 30 minutes before chloroform, salts (hydrochloride), read-out: AD50 (dose protecting 50% of the animals against ventricular fibrillation)
[12] = 30 minutes after administration

Question: For `NC(=O)O[C@@H]1CCN(CCCOc2ccc(Br)cc2)[C@H]2CCCC[C@H]12` (relative stereo) [hydrogen, 3, O, 4-bromo-phenyl, axial, 1-[3-(4-Bromo-phenoxy)-propyl]-4-carbamoyloxy-trans-decahydroquinoline hydrochloride (axial form)], which ED50 [1, 11] is on record?
Answer: The ED50 was 65 mg/kg.

Question: With `NC(=O)O[C@@H]1CCN(CCCOc2ccc(F)cc2)[C@H]2CCCC[C@H]12` (relative stereo) [Compound A, 4-Carbamoyloxy-1-[3-(4-fluoro-phenoxy)-propyl]-trans-decahydroquinoline (axial form)] as the molecule, how does the LD50 (acute toxicity [2]; iv) read?
Answer: Its LD50 is 47 mg/kg.

Question: And the LD50 (acute toxicity [2]; po)?
Answer: Its LD50 is > 2000 mg/kg.

Question: What about the “protection against ventricular fibrillation provoked by chloroform or by calcium chloride” value [3] of the same molecule?
Answer: Its value is “provides protection against ventricular fibrillation provoked by chloroform or by calcium chloride”.

Question: And the ED50 [1, 11]?
Answer: Its ED50 is 45 mg/kg.

Question: What about the ED50 ([1]; mice, per os, read-out: Antiarrhythmic dose (LAWSON AD50 test)) of the same molecule?
Answer: The ED50 was 45 mg/kg.

Question: And the “safety margin between effective antiarrhythmic dose and convulsant dose” value (convulsant dose)?
Answer: Its value is “good safety margin”.

Question: What about the LD50 (acute toxicity [4]; po, intragastric) of the same molecule?
Answer: Its LD50 is 750 mg/kg.

Question: And the LD50 (acute toxicity [4]; intravenous)?
Answer: Its LD50 is 42.5 mg/kg.

Question: And the “local anaesthetic activity compared with lidocaine” value ([5]; guinea-pig)?
Answer: Its value is “more active than lidocaine as a local anaesthetizing agent and exerts its effects over a longer period of time”.

Question: And the “local anaesthesia, % of animals” value [5]?
Answer: Its value is 58%.

Question: What about the “local anaesthesia, % of animals protected” value [5, 12] of the same molecule?
Answer: Its value is 35%.

Question: What about the lethal dose [6] of the same molecule?
Answer: Its lethal dose is 84.1 ± 7.1 mg/kg.

Question: What about the TD50 ([6]; in vivo, iv) of the same molecule?
Answer: The TD50 was 80.6 ± 6 mg/kg.

Question: And the “sedative / antiadrenergic at antiarrhythmic doses” value ([7]; mice, 50 mg/kg intragastric)?
Answer: The value was “neither sedative nor antiadrenergic at antiarrhythmic doses”.

Question: What about the “depression of spontaneous motility” value ([7]; mice, 50 mg/kg intragastric, 30 minutes later) of the same molecule?
Answer: The value was “no depression of spontaneous motility”.

Question: What about the motor activity ([7]; mouse) of the same molecule?
Answer: Its motor activity is “does not modify motor activity”.

Question: What about the “hypotensive activity and depression of myocardial contractility” value [8] of the same molecule?
Answer: The value was “neither a hypotensive agent since its mechanism of action does not result from antiadrenergic properties nor is it a depressant of myocardial contractility”.

Question: And the “% of protection” value [9, 12]?
Answer: The value was 80%.

Question: And the “% of protection” value ([9]; 60 minutes after administration)?
Answer: Its value is 65%.

Question: What about the “% of protection” value ([9]; 120 minutes after administration) of the same molecule?
Answer: Its value is 60%.

Question: What about the “% of protection” value ([9]; 180 minutes after administration) of the same molecule?
Answer: The value was 45%.

Question: What about the “% of protection” value ([9]; 240 minutes after administration) of the same molecule?
Answer: Its value is 30%.

Question: What about the “protection against the toxic effects of epinephrine” value [10] of the same molecule?
Answer: The value was “no protection”.

Question: With `CCNC(=O)O[C@@H]1CCN(CCCOc2ccc(F)cc2)[C@H]2CCCC[C@H]12` (relative stereo) [ethyl, 3, O, 4-fluoro-phenyl, axial, 4-(N-Ethylcarbamoyloxy)-1-[3-(4-fluoro-phenoxy)-propyl]-trans-decahydroquinoline hydrochloride (axial form)] as the molecule, how does the ED50 [1, 11] read?
Answer: The ED50 was 50 mg/kg.

Question: Which ED50 [1, 11] does the source give for `CC(=O)c1ccc(OCCCN2CC[C@@H](OC(N)=O)[C@H]3CCCC[C@@H]32)cc1` (relative stereo) [hydrogen, 3, O, 4-acetyl-phenyl, axial, 1-[3-(4-Acetyl-phenoxy)-propyl]-4-carbamoyloxy-trans-decahydroquinoline hydrochloride (axial form)] here?
Answer: The ED50 was > 100 mg/kg.

Question: For `CCN(CC)CC(=O)Nc1c(C)cccc1C` [lidocaine, reference compound], which ED50 ([1]; 0.5 h, read-out: AD50 (dose protecting 50% of the animals against ventricular fibrillation)) is on record?
Answer: Its ED50 is 35 mg/kg.

Question: What about the “local anaesthesia, % of animals” value [5] of the same molecule?
Answer: The value was 26%.

Question: And the “local anaesthesia, % of animals protected” value ([5]; 15 minutes after administration)?
Answer: Its value is 35%.

Question: For `NC(=O)O[C@@H]1CCN(CCOc2ccc(Br)cc2)[C@H]2CCCC[C@H]12` (relative stereo) [hydrogen, 2, O, 4-bromo-phenyl, axial, 1-[2-(4-Bromo-phenoxy)-ethyl]-4 carbamoyloxy-trans-decahydroquinoline hydrochloride (axial form)], which ED50 [1, 11] is on record?
Answer: The ED50 was 90 mg/kg.

Question: With `NC(=O)O[C@@H]1CCN(CCOc2ccc3ccccc3c2)[C@H]2CCCC[C@H]12` (relative stereo) [hydrogen, 2, O, 2-naphthyl, axial, 4-Carbamoyloxy-1-[2-(2-naphthyloxy)-ethyl]-trans-decahydroquinoline hydrochloride (axial form)] as the molecule, how does the ED50 [1, 11] read?
Answer: Its ED50 is 50 mg/kg.

Question: For `N#Cc1ccc(OCCCN2CC[C@@H](OC(N)=O)[C@H]3CCCC[C@@H]32)cc1` (relative stereo) [hydrogen, 3, O, 4-cyano-phenyl, axial, 4-Carbamoyloxy-1-[3-(4-cyano-phenoxy)-propyl]-trans-decahydroquinoline hydrochloride (axial form)], which ED50 [1, 11] is on record?
Answer: Its ED50 is 30 mg/kg.
